Where only a bound is given, the exact number is not on record here.

The target in one experiment is T1, GST-hPPARγ2 (Homo sapiens, UniProt P37231).
T1 construct: the complete cDNA of the […] human PPARs were cloned into pGEX4T2; made in house; host or cells: Escherichia coli BL21 (DE3)
T1 sequence (P37231 1-505): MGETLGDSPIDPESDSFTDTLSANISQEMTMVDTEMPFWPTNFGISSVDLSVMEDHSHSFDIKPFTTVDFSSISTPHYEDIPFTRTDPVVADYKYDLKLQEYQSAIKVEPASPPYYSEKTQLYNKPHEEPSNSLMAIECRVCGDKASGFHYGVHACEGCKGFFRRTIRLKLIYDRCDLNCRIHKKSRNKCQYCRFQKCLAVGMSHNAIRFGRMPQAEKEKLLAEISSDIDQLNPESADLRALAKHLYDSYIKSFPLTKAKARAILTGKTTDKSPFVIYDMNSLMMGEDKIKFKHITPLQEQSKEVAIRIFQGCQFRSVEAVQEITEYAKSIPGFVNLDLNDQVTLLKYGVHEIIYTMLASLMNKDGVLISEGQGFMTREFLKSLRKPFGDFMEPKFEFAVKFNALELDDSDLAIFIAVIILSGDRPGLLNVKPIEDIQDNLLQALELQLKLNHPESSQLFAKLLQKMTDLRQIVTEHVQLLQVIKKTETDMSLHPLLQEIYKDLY
Put plainly: Assay of binding to the PPARγ2 ([3H]BRL-49853 displacement). As to conditions: Table 19; GST-hPPARγ2, [3H]BRL-49853 100 nM; read-out: Affinity PPARγ(1). The method, then:
Assay of Binding to the PPARγ2
The cDNA encoding for the open reading frame of the hPPARγ2 is amplified by PCR (polymerase chain reaction) and inserted in the plasmid pGEX-4T-2.
The reaction mixture was transferred to a Multiscreen Durapore (Millipore) microplate containing glutathione-Sepharose 4B in every well. The reaction mixture was left to incubate with the resin during 10 min, and then centrifuged at 735 g during 2 min. To dissociate the receptor bound to the resin, reduced glutathione 10 mM is added and incubated during 10 min. The receptor was eluted by centrifugation. Then, 800 μL of scintillation liquid were added to the elution and the contained radioactivity was quantified by liquid scintillation spectroscopy (Microbeta Wallac, Perkin Elmer).

The next experiment deals with T2, PPARγ LBD (Homo sapiens, UniProt P37231).
T2 construct: expressed in transfected cells; host or cells: COS-7
T2 sequence (P37231 238-503 limits assumed): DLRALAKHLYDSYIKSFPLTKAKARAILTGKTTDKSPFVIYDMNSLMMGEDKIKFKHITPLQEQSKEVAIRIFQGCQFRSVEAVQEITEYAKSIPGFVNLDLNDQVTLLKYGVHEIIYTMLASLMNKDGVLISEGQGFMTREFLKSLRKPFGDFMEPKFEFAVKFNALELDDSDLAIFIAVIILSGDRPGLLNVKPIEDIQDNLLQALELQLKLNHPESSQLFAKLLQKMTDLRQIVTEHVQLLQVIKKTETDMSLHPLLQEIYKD
Put plainly: LBD-hPPARs transactivation assay (GAL4-LBD luciferase reporter in COS-7 cells). Format: cell-based. The conditions noted are these: 48 h. An excerpt:
LBD-hPPARs Transactivation Assay
COS-7 cells were cultivated in 24-well plates and transfected with the pFACMV plasmids that encode the chimeric proteins containing the GAL4 DNA binding domain fused to the PPARγ LBD. The reporter plasmid for the foregoing constructions was pFR-Luc, which contains five repetitions of the GAL4-response element in front of a promoter that controls the transcription of the luciferase gene. Lipofectamine was used as a transfection agent.
The plasmids of the chimeric receptors and the reporter gene were inserted in the cells by transitory transfection in COS-7 cells in culture.

Turning to `O=C(N[C@@H](Cc1ccc(OCc2ccccc2)cc1)C(=O)O)c1ccc(OCc2ccccc2Br)cc1` [Example 238, (2S)-3-(4-Benzyloxyphenyl)-2-[4-(2-bromobenzyloxy)benzoylamino]propionic acid], the Ki at GST-hPPARγ2 was < 1000 nM. The “Functional activity PPARγ” value on PPARγ LBD is given as “Antagonist”.

Consider `COC(=O)[C@H](Cc1ccc(OCc2ccccc2)cc1)NC(=O)c1ccc(OCc2ccccc2Cl)cc1` [Example 20, (2S)-3-(4-Benzyloxyphenyl)-2-[4-(2-chlorobenzyloxy)benzoylamino]propionic acid methyl ester], for which, on GST-hPPARγ2, the Ki was < 1000 nM. The “Functional activity PPARγ” value on PPARγ LBD was “Partial agonist”.

As for `O=C(O)CCN(Cc1cccc(OCc2ccccc2)c1)C(=O)c1cccc(OCCN(Cc2ccccc2)Cc2ccccc2)c1` [Example 163, 3-{(3-Benzyloxybenzyl)-[3-(2-dibenzylaminoethoxy)benzoyl]amino}propionic acid], at GST-hPPARγ2, the Ki is < 1000 nM. The “Functional activity PPARγ” value on PPARγ LBD was “Antagonist”.

With `O=C(N[C@@H](Cc1ccc(OCc2ccccc2)cc1)C(=O)O)c1cccc(OCc2ccc(-c3ccccc3)cc2)c1` [Example 187, (2S)-3-(4-Benzyloxyphenyl)-2-[3-(biphenyl-4-ylmethoxy)benzoylamino]propionic acid], the Ki at GST-hPPARγ2 was < 1000 nM. Also, the “Functional activity PPARγ” value on PPARγ LBD was “Agonist”.

In the case of `O=C(N[C@@H](Cc1ccc(OCc2ccccc2)cc1)C(=O)O)c1ccc(OCc2ccc(OCc3ccccc3)cc2)cc1` [Example 183, (2S)-2-[4-(4-Benzyloxybenzyloxy)benzoylamino]-3-(4-benzyloxyphenyl)propionic acid], the Ki at GST-hPPARγ2 is < 1000 nM. Besides, on PPARγ LBD, the “Functional activity PPARγ” value is recorded as “Partial agonist”.

With `CCCCc1ccc(COc2ccc(C(=O)N(CCC(=O)O)Cc3cccc(OCc4ccccc4)c3)cc2)cc1` [Example 218, 3-{(3-Benzyloxybenzyl)-[4-(4-butylbenzyloxy)benzoyl]amino}propionic acid], the Ki on GST-hPPARγ2 was < 1000 nM. Further, on PPARγ LBD, the “Functional activity PPARγ” value was “Antagonist”.

As to `O=C(O)CCN(Cc1ccc(OCc2ccccc2)cc1)C(=O)c1ccc(OCc2cccc(OCc3ccccc3)c2)cc1` [Example 176, 3-{(4-Benzyloxybenzyl)-[4-(3-benzyloxybenzyloxy)benzoyl]amino}propionic acid], the Ki at GST-hPPARγ2 was < 1000 nM. Further, the “Functional activity PPARγ” value at PPARγ LBD is recorded as “Antagonist”.

For `O=C(N[C@H](Cc1c[nH]c2ccccc12)C(=O)O)c1ccc(OCCN(Cc2ccccc2)Cc2ccccc2)cc1` [Example 131, (2R)-2-[4-(2-Dibenzylaminoethoxy)benzoylamino]-3-(1H-indol-3-yl)propionic acid], the Ki on GST-hPPARγ2 lay within 1000 to 3000 nM. The “Functional activity PPARγ” value at PPARγ LBD is listed as “Partial agonist”.

In the case of `Cc1nc2ccccc2nc1OCCOc1ccc(C(=O)N[C@@H](Cc2ccc(OCc3ccccc3)cc2)C(=O)O)cc1` [Example 160, (2S)-3-(4-Benzyloxyphenyl)-2-{4-[2-(3-methylquinoxalin-2-yloxy)ethoxy]benzoylamino}propionic acid], the Ki at GST-hPPARγ2 was > 3000 nM. The “Functional activity PPARγ” value on PPARγ LBD is on record as “Partial agonist”.

With `O=C(O)CCN(Cc1ccc(OCc2ccccc2)cc1)C(=O)c1cccc(OCCN(Cc2ccccc2)Cc2ccccc2)c1` [Example 164, 3-{(4-Benzyloxybenzyl)-[3-(2-dibenzylaminoethoxy)benzoyl]amino}propionic acid], on GST-hPPARγ2, the Ki lay in the range of 1000 to 3000 nM. Besides, the “Functional activity PPARγ” value at PPARγ LBD is “Antagonist”.

Regarding `O=C(N[C@@H](Cc1ccc(OCc2ccccc2)cc1)C(=O)O)c1ccc(OCc2ccccc2)cc1` [Example 129, (2S)-2-(4-Benzyloxybenzoylamino)-3-(4-benzyloxyphenyl)propionic acid], on GST-hPPARγ2, the Ki was < 1000 nM. Besides, the “Functional activity PPARγ” value on PPARγ LBD is “Partial agonist”.

`COC(=O)[C@H](Cc1ccc(OCc2ccccc2)cc1)NC(=O)c1ccc(OCc2ccccc2C)cc1` [Example 27, (2S)-3-(4-Benzyloxyphenyl)-2-[4-(2-methylbenzyloxy)benzoylamino]propionic acid methyl ester]: the Ki on GST-hPPARγ2 is < 1000 nM. Also, the “Functional activity PPARγ” value on PPARγ LBD was “Antagonist”.

In the case of `O=C(NC(Cc1c[nH]c2ccc(Br)cc12)C(=O)O)c1ccc(OCCN(Cc2ccccc2)Cc2ccccc2)cc1` (stereo not drawn) [Example 142, 3-(5-Bromo-1H-indol-3-yl)-2-[4-(2-dibenzylaminoethoxy)benzoylamino]propionic acid], the Ki on GST-hPPARγ2 lay within 1000 to 3000 nM. Also, the “Functional activity PPARγ” value on PPARγ LBD is “Antagonist”.

Take `COC(=O)[C@H](Cc1ccc(OCc2ccccc2)cc1)NC(=O)c1ccc(OCCOc2nc3ccccc3nc2C)cc1` [Example 95, (2S)-3-(4-Benzyloxyphenyl)-2-{4-[2-(3-methylquinoxalin-2-yloxy)ethoxy]benzoylamino}propionic acid methyl ester]: the Ki at GST-hPPARγ2 was < 1000 nM. Also, the “Functional activity PPARγ” value at PPARγ LBD was “Agonist”.

Consider `O=C(N[C@@H](Cc1ccc(OCc2ccccc2)cc1)C(=O)O)c1ccc(OCCOc2cccc(Br)c2)cc1` [Example 161, (2S)-3-(4-Benzyloxyphenyl)-2-{4-[2-(3-bromophenoxy)ethoxy]benzoylamino}propionic acid], for which the Ki on GST-hPPARγ2 is 1000 to 3000 nM. Also, the “Functional activity PPARγ” value on PPARγ LBD is “Antagonist”.

For the compound `COC(=O)[C@H](Cc1ccc(OCc2ccccc2)cc1)NC(=O)c1ccc(OCCOc2cccc3cccnc23)cc1` [Example 98, (2S)-3-(4-Benzyloxyphenyl)-2-{4-[2-(quinolin-8-yloxy)ethoxy]-benzoylamino}propionic acid methyl ester], the Ki on GST-hPPARγ2 is < 1000 nM. The “Functional activity PPARγ” value on PPARγ LBD was “Antagonist”.

`O=C(N[C@@H](Cc1ccc(OCc2ccccc2)cc1)C(=O)O)c1cccc(OCc2cccc(Oc3ccccc3)c2)c1` [Example 188, (2S)-3-(4-Benzyloxyphenyl)-2-[3-(3-phenoxybenzyloxy)benzoylamino]propionic acid]: the Ki at GST-hPPARγ2 is < 1000 nM. On PPARγ LBD, the “Functional activity PPARγ” value is given as “Partial agonist”.

`Cc1nc2ccccc2nc1OCCOc1cccc(C(=O)N[C@@H](Cc2ccc(OCc3ccccc3)cc2)C(=O)O)c1` [Example 180, (2S)-3-(4-Benzyloxyphenyl)-2-{3-[2-(3-methylquinoxalin-2-yloxy)ethoxy]benzoylamino}propionic acid]: at GST-hPPARγ2, the Ki was < 1000 nM. At PPARγ LBD, the “Functional activity PPARγ” value is recorded as “Partial agonist”.

In the case of `O=C(N[C@@H](Cc1ccc(OCc2ccccc2)cc1)C(=O)O)c1cccc(OCc2ccc(OCc3ccccc3)cc2)c1` [Example 185, (2S)-2-[3-(4-Benzyloxybenzyloxy)benzoylamino]-3-(4-benzyloxyphenyl)propionic acid], the Ki at GST-hPPARγ2 is < 1000 nM. Besides, the “Functional activity PPARγ” value at PPARγ LBD is on record as “Partial agonist”.

Regarding `O=C(O)CCN(Cc1cccc(OCc2ccccc2)c1)C(=O)c1ccc(OCCN(Cc2ccccc2)Cc2ccccc2)cc1` [Example 162, 3-{(3-Benzyloxybenzyl)-[4-(2-dibenzylaminoethoxy)benzoyl]amino}propionic acid], the Ki on GST-hPPARγ2 is < 1000 nM. Besides, the “Functional activity PPARγ” value on PPARγ LBD is reported as “Antagonist”.

Regarding `COC(=O)[C@H](Cc1ccc(OCc2ccccc2)cc1)NC(=O)c1ccc(OCc2cccc(Cl)c2)cc1` [Example 21, (2S)-3-(4-Benzyloxyphenyl)-2-[4-(3-chlorobenzyloxy)benzoylamino]propionic acid methyl ester], at GST-hPPARγ2, the Ki was < 1000 nM. Further, the “Functional activity PPARγ” value at PPARγ LBD is recorded as “Partial agonist”.
